The results in this text go back to patent publication US20250228795A1, “ESTROGENIC COMPOUNDS AND METHODS OF USE” (laterion, Inc., priority 2022, published 2025).

The target in one assay is T1, ERβ (Homo sapiens, UniProt Q92731).
T1 construct: expressed in transfected cells; host or cells: doxycycline-dependent U2OS cells
In words: Luciferase activity in NKG2E-TK-Luc-transfected U2OS-ERβ cells with doxycycline. The class given is cell-based. As to conditions: in combination with E2, doxycycline, FIG. 7. The method, then: Luciferase Activity in NKG2E-TK-Luc-Transfected U2OS-ERβ Cells with Doxycycline. […] Luciferase activity for each of the compounds was recorded.

Assay [1] has as its system MCF-7 breast cancer cells. In words: MCF-7 cell proliferation (viable cell counts), A9 and its four analogs. It is filed as cell-based. The procedure: Viable cell counts were determined by flow cytometry.
MCF-7 cells were plated at a density of 50,000 cells per well in 6-well tissue culture plates in DMEM/F12 supplemented with 5% stripped FBS. […] The cells were then detached with trypsin, neutralized with media containing 5% FBS, and resuspended. Appropriate amounts of cell suspension were placed in ISOTON II diluent (Thermo Fisher Scientific, Waltham, MA, USA) and the cell numbers were then measured using a Coulter Counter (Beckman, Brea, CA, USA)
(§1) Flow cytometry was performed based on a previously described method (Pan et al. 2016). Briefly, the cells were plated at a density of 500,000 cells per well in 6-well tissue culture dishes in DMEM/F-12 supplemented with 5% stripped FBS for 48 h. The cultured medium was then replaced by serum-free DMEM/F12 for 24 h. […] The culture medium was then aspirated, and the cells were washed with PBS, detached with trypsin and collected by centrifugation at 1700 rpm for 5 min. The cell pellets were washed with ice cold PBS followed by centrifugation at 1700 rpm for 10 min at room temperature. The cell pellets were resuspended in 500 μL PBS containing 50 μg/mL propidium iodide, 0.1% of triton X-100, 0.1% of sodium citrate, and 10 μg/mL of RNase. The cell suspensions were then analyzed with a BD LSR II Flow Cytometer (BD Biosciences, San Jose, CA, USA) in the Flow Cytometry facility at University of California, Berkeley and the percentage of cells in cell cycle phases were determined by using FlowJo 7.6.5 (FlowJo, LLC, Ashland, OR, USA).

Assay [2] concerns MCF-7 breast cancer cells. In words: MCF-7 cell proliferation (viable cell counts), CC7 and six analogs. It is filed as cell-based. The method, then:
In order for long term menopausal hormone therapy to be a viable alternative to currently available therapeutic options it must not promote breast cancer. […] MCF-7 cells were incubated for 24 hr in the presence of medium (control), 1 nM […], or 5 μM of each of the compounds depicted in FIG. 4 (CC7 and six analogs, A9, A10, A11, A13, A15, and A20). Viable cell counts were determined by flow cytometry.
MCF-7 cells were plated at a density of 50,000 cells per well in 6-well tissue culture plates in DMEM/F12 supplemented with 5% stripped FBS. […] The cells were then detached with trypsin, neutralized with media containing 5% FBS, and resuspended. Appropriate amounts of cell suspension were placed in ISOTON II diluent (Thermo Fisher Scientific, Waltham, MA, USA) and the cell numbers were then measured using a Coulter Counter (Beckman, Brea, CA, USA).
as §1

Assay [3] has as its target T2, ERα (Homo sapiens, UniProt P03372).
T2 sequence (P03372 1-595): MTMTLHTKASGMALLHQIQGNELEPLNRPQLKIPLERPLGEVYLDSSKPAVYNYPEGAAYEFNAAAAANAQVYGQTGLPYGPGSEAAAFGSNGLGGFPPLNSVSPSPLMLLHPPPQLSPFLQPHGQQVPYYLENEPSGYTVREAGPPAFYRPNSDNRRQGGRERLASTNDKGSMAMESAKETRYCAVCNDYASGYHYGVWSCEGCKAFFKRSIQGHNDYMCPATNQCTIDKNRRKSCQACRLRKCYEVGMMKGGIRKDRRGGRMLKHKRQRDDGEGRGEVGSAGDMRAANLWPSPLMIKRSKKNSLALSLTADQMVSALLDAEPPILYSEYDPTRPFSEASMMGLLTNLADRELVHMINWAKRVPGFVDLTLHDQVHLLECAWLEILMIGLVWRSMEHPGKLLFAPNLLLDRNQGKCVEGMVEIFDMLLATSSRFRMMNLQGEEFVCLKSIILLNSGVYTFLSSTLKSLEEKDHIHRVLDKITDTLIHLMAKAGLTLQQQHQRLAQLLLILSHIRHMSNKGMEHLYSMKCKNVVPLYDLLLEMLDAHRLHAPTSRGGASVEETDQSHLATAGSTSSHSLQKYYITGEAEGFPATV
In words: Luciferase activity in ERE-TK-Luc/ERα-transfected Ishikawa cells. It is filed as cell-based. Details: expressed in transfected cells; host or cells: Ishikawa cells. The settings on record: FIG. 6.

For assay [4], the target named is T2, ERα. In words: Luciferase assay of A9 analogs in doxycycline-dependent U2OS cells (ER-TK-Luc or NKG2E-TK-Luc). It is filed as cell-based. Details: expressed in transfected cells; host or cells: doxycycline-dependent U2OS cells. As to conditions: in combination with E2; ER-TK-Luc (FIG. 9) and NKG2E-TK-Luc (FIG. 10); compared with A9R1-A9R4. The procedure: Luciferase Assay of A9 analogs. In order to better understand the structure-activity relationship of analogs of A9, the analogs A9R1, A9R2, A9R3, and A9R4 were prepared. See structures on FIG. 8. […] Luciferase activity results are shown in FIG. 9 (ER-TK-Luc) and FIG. 10 (NKG2E-TK-Luc).

For a further assay, the system named is KRT19. In words: Gene expression assay (real-time PCR) in U2OS-ERα cells: KRT19. The settings on record: in combination with E2, U2OS-ERα cells, FIG. 5. The class given is cell-based, Human. The method, then:
(§2) Human U2OS (osteosarcoma) cells expressing a tetracycline-regulated ERα (U2OS-ERα) were prepared, characterized, and maintained as previously described (Tee et al., 2004). The cells were maintained in phenol red-free Gibco DMEM/F-12 (Thermo Fisher Scientific, Waltham, MA, USA) supplemented with 5% charcoal-dextran stripped fetal bovine serum (FBS, Gemini Bio Products, West Sacramento, CA, USA), 100 units/mL penicillin and streptomycin, 50 μg/mL Fungizone, and 2 mM of glutamine. To maintain stable transfected cells, 50 μg/mL hygromycin B and 500 μg/mL of zeocin (Invitrogen, Waltham, MA, USA) were included in culture media.
Background: Real-time PCR tracks product formation cycle by cycle.

The test system of a further assay is FGR. In words: Gene expression assay (real-time PCR) in U2OS-ERα cells: reprogrammed gene FGR. It is filed as cell-based, Human. The settings on record: FIG. 5. The method, then:
as §2

The mark [5] stands for this setting: compound (5 μM) in combination with E2, FIG. 11.
The mark [6] stands for this setting: compound (5 μM) in combination with E2, FIG. 4.
Where [7] appears, read: compound alone (1 nM E2 or 5 μM compound), FIG. 11.
Where [8] appears, read: in combination with E2, Ishikawa cells.

T1 sequence (Q92731 whole entry): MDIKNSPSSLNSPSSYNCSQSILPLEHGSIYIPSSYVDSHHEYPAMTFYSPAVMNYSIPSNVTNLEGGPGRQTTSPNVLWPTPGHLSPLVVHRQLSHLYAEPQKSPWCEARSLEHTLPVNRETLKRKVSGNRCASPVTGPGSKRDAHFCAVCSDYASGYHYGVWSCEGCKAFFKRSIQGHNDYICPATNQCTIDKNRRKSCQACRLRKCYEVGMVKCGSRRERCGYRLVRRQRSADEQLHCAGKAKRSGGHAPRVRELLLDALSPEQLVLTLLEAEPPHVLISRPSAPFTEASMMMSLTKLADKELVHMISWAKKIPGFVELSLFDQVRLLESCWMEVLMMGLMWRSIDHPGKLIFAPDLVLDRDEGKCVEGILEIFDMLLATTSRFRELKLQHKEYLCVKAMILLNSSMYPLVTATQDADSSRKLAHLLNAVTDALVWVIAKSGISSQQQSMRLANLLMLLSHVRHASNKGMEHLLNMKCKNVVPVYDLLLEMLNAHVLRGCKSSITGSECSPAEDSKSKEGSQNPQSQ

`O=C(/C=C/c1ccc(O)cc1)c1ccc(O)cc1` [Example A13, (E)-1,3-bis(4-hydroxyphenyl)prop-2-en-1-one]: the “luciferase activity (NKG2E-TK-Luc), ERβ activity” value on ERβ is “exceptional ERβ activity”.
Consider `Cc1cc(O)ccc1C(=O)/C=C/c1ccccn1` [Example A9R2, (E)-1-(4-hydroxy-2-methylphenyl)-3-(pyridin-2-yl)prop-2-en-1-one], for which the “MCF-7 viable cell count / proliferation” value in assay [1] (setting [5]) was “well below the control”.
Turning to `O=C(/C=C/c1cccc(O)c1)c1ccc(O)c(O)c1O` [Example A10, (E)-3-(3-hydroxyphenyl)-1-(2,3,4-trihydroxyphenyl)prop-2-en-1-one], the “MCF-7 viable cell count / proliferation” value in assay [2] (setting [6]) was “well below the cell counts for E2 alone”. The “luciferase activity (NKG2E-TK-Luc), ERβ activity” value on ERβ is on record as “exceptional ERβ activity”.
For the compound `O=C(/C=C/c1ccccn1)c1ccc(O)cc1` [Example A9R1, (E)-1-(4-hydroxyphenyl)-3-(pyridin-2-yl)prop-2-en-1-one], in assay [1] (setting [5]), the “MCF-7 viable cell count / proliferation” value is on record as “well below the control”.
Turning to `O=C(/C=C/c1ccccn1)c1ccc(O)c(O)c1O` [Example A9, (E)-3-(pyridin-2-yl)-1-(2,3,4-trihydroxyphenyl)prop-2-en-1-one], the “MCF-7 viable cell count / proliferation” value is “well below the control” in assay [2] (setting [6]), “well below the control” in assay [1] (setting [5]) and “well below the cell counts for E2 alone” in assay [1] (setting [7]). Moreover, the “luciferase activity (ERE-TK-Luc)” value on ERα [3] (compound alone, Ishikawa cells) is given as “no effect”; on ERα [3] (setting [8]) it was “demonstrated synergism with E2”. Moreover, the “luciferase activity, synergistic effect with E2” value at ERα [4] is reported as “greatest synergistic effect with E2”.
With `O=C(/C=C/c1ccccn1)c1ccc(O)cc1O` [Example A9R4, (E)-1-(2,4-dihydroxyphenyl)-3-(pyridin-2-yl)prop-2-en-1-one], the “MCF-7 viable cell count / proliferation” value in assay [1] (setting [5]) was “well below the control”.
As for `O=C(/C=C/c1ccccc1)c1ccc(O)c(O)c1O` [CC7, 2′,3′,4′-trihydroxychalcone, reference compound], the “MCF-7 viable cell count / proliferation” value in assay [2] (setting [6]) is given as “well below the cell counts for E2 alone”; in assay [2] (compound alone (1 nM E2 or 5 μM compound), FIG. 4), “well below the cell counts for E2 alone”; in assay [1] (setting [5]) it was “well below the control”; in assay [1] (setting [7]), “well below the cell counts for E2 alone”. Also, the KRT19 expression result with KRT19 is “large synergistic effect”. The FGR expression result with FGR (compound by itself, U2OS-ERα cells) is “not by either compound by itself”; with FGR (in combination with E2, U2OS-ERα cells), “activated by the combination of E2 and CC7 only”. Besides, the “luciferase activity (ERE-TK-Luc)” value at ERα [3] (compound alone, Ishikawa cells) is “no effect”; on ERα [3] (setting [8]) it was “demonstrated synergism with E2”.
Consider `O=C(/C=C/c1ccc(O)cc1)c1ccc(O)c(O)c1` [Example A14, (E)-1-(3,4-dihydroxyphenyl)-3-(4-hydroxyphenyl)prop-2-en-1-one], for which the “luciferase activity (NKG2E-TK-Luc), ERβ activity” value on ERβ is reported as “exceptional ERβ activity”.
On the same count and under the same terms, then `O=C(/C=C/c1ccc(O)cc1)c1ccccc1` [Example A15, (E)-3-(4-hydroxyphenyl)-1-phenylprop-2-en-1-one], with “exceptional ERβ activity”.
